Source: ChEMBL document CHEMBL5550165, “Novel quinoxaline analogs as telomeric G-quadruplex ligands exert antitumor effects related to enhanced immunomodulation” (Eur J Med Chem, 2024)
Active and inactive are the calls of the source. The rule behind the calls is not given here.

Experiments:
Quadruplex DNA [1] = assay: Stabilization of G-quadruplex 5-FAM-telomeric24 DNA-TAMRA-3 (unknown origin) assessed as change in melting temperature incubated for 2 hrs by FRET assay; type: nucleic-acid assay
MDA-MB-231 [2] = assay: Cytotoxicity against human MDA-MB-231 cells incubated for 24 hrs by CCK-8 reagent based spectrophotometric analysis; type: functional, cell-based; details: MDA-MB-231, 24 h
4T1 [3] = assay: Cytotoxicity against mouse 4T1 cells incubated for 24 hrs by CCK-8 reagent based spectrophotometric analysis; type: functional, cell-based; details: 4T1, 24 h
MCF7 = assay: Cytotoxicity against human MCF7 cells incubated for 24 hrs by CCK-8 reagent based spectrophotometric analysis; type: functional, cell-based; details: MCF7, 24 h
Quadruplex DNA [4] = assay: Stabilization of G-quadruplex telomeric DNA in human MDA-MB-231 cells assessed as increase in BG4-positive cell nuclei at 3 uM incubated for 24 hrs by DAPI staining based immunofluorescence microscopic analysis
Quadruplex DNA [5] = assay: Stabilization of G-quadruplex telomeric DNA in human MDA-MB-231 cells assessed as increase in colocalization of BG4 and TRF2 formation foci at 3 uM incubated for 24 hrs by DAPI staining based immunofluorescence microscopic analysis; type: cell-based
Quadruplex DNA [6] = assay: Stabilization of G-quadruplex telomeric DNA in human MDA-MB-231 cells assessed as increase in S9.6-positive cell nuclei at 3 uM incubated for 24 hrs by DAPI staining based immunofluorescence microscopic analysis
MDA-MB-231 [7] = assay: Induction of DNA damage in human MDA-MB-231 cells assessed as increase in tail moment at 4 uM incubated for 24 hrs by electrophoresis assay; type: functional, cell-based
MDA-MB-231 [8] = assay: Induction of DNA damage in human MDA-MB-231 cells assessed as upregulation of RPA32 expression at 1 to 4 uM incubated for 24 hrs by Western blot analysis; type: functional, cell-based; details: dose 1-4 µM
MDA-MB-231 [9] = assay: Induction of DNA damage in human MDA-MB-231 cells assessed as upregulation of CHK2 phosphorylation incubated for 24 hrs by Western blot analysis; type: functional, cell-based
MDA-MB-231 [10] = assay: Induction of DNA damage in human MDA-MB-231 cells assessed as upregulation of CHK2 phosphorylation at 4 uM by Western blot analysis; type: functional, cell-based; details: TDE = time-dependent effect
MDA-MB-231 [11] = assay: Induction of cell cycle arrest in human MDA-MB-231 cells assessed as accumulation of cells at G0/G1 phase at 1 uM incubated for 24 hrs by RNase/PI staining based flow cytometry (reference value: 82.3 %); type: functional
MDA-MB-231 [12] = assay: Induction of cell cycle arrest in human MDA-MB-231 cells assessed as accumulation of cells at G0/G1 phase at 2 uM incubated for 24 hrs by RNase/PI staining based flow cytometry (reference value: 82.3 %); type: functional
MDA-MB-231 [13] = assay: Induction of cell cycle arrest in human MDA-MB-231 cells assessed as accumulation of cells at G0/G1 phase at 4 uM incubated for 24 hrs by RNase/PI staining based flow cytometry (reference value: 82.3 %); type: functional
MDA-MB-231 [14] = assay: Induction of apoptosis in human MDA-MB-231 cells assessed as increase in Annexin V-positive cells at 1 to 4 uM incubated for 24 hrs by Annexin V-633/PI staining based flow cytometry; type: functional, cell-based; details: dose 1-4 µM
MDA-MB-231 [15] = assay: Induction of cell cycle arrest in human MDA-MB-231 cells assessed as downregulation of Cyclin B1 expression at 1 to 4 uM incubated for 24 hrs by Western blot analysis; type: functional, cell-based; details: dose 1-4 µM
MDA-MB-231 [16] = assay: Induction of apoptosis in human MDA-MB-231 cells assessed as upregulation of cleaved PARP expression at 1 to 4 uM incubated for 24 hrs by Western blot analysis; type: functional, cell-based; details: dose 1-4 µM
MDA-MB-231 [17] = assay: Inhibition of cell migration in human MDA-MB-231 cells incubated for 48 hrs by wound scrape assay; type: functional, cell-based
[18] = Drug uptake in human MDA-MB-231 cells assessed as increase in fluorescence intensity in tumor spheroid incubated for 24 hrs; type: ADME, cell-based; details: mda-mb-231, 24 h
MDA-MB-231 [19] = assay: Induction of immunogenic cell death in human MDA-MB-231 cells assessed as increase in ATP release at 1 to 4 uM incubated for 24 hrs by ELISA; type: functional, cell-based; details: dose 1-4 µM
Quadruplex DNA [20] = assay: Binding affinity to G-quadruplex telomeric DNA (unknown origin) assessed as thermal shift at 10 uM by UV-Visible spectrophotometric analysis; type: nucleic-acid assay
BMDC = assay: Induction of immunogenic cell death in BALB/c mouse BMDC cells co-cultured with mouse 4T1 cells assessed as increase in CD11c+ CD80+ CD86 cells maturation at 5 uM incubated for 24 hrs by flow cytometry (reference value: 69.4 %); type: functional
4T1 [21] = assay: Antitumor activity against mouse 4T1 cells implanted in BALB/c mouse assessed as reduction in tumor volume at 10 mg/kg,ip every other day for 14 days; type: functional, organism-based; details: time 14.0 day
4T1 [22] = assay: Antitumor activity against mouse 4T1 cells implanted in BALB/c mouse assessed as reduction in tumor weight at 10 mg/kg,ip every other day for 14 days; type: functional, organism-based; details: time 14.0 day
[23] = Toxicity in BALB/c mouse implanted with mouse 4T1 cells assessed as histopathological change in heart at 10 mg/kg,ip every other day for 14 days by hematoxylin and eosin staining analysis; type: organism-based; details: in vivo, 336 h, time 14 day
[24] = Toxicity in BALB/c mouse implanted with mouse 4T1 cells assessed as histopathological change in liver at 10 mg/kg,ip every other day for 14 days by hematoxylin and eosin staining analysis; type: organism-based; details: in vivo, 336 h, time 14 day
[25] = Toxicity in BALB/c mouse implanted with mouse 4T1 cells assessed as histopathological change in spleen at 10 mg/kg,ip every other day for 14 days by hematoxylin and eosin staining analysis; type: organism-based; details: in vivo, 336 h, time 14 day
[26] = Toxicity in BALB/c mouse implanted with mouse 4T1 cells assessed as histopathological change in lung at 10 mg/kg,ip every other day for 14 days by hematoxylin and eosin staining analysis; type: organism-based; details: in vivo, 336 h, time 14 day
[27] = Toxicity in BALB/c mouse implanted with mouse 4T1 cells assessed as histopathological change in kidney at 10 mg/kg,ip every other day for 14 days by hematoxylin and eosin staining analysis; type: organism-based; details: in vivo, 336 h, time 14 day
4T1 [28] = assay: Antitumor activity against mouse 4T1 cells implanted in BALB/c mouse assessed as upregulation of gamma-H2AX expression in tumor at 10 mg/kg,ip every other day for 14 days by immunohistochemistry; type: functional, organism-based; details: time 14.0 day
4T1 [29] = assay: Antitumor activity against mouse 4T1 cells implanted in BALB/c mouse assessed as upregulation of cleaved caspase-3 expression in tumor at 10 mg/kg,ip every other day for 14 days by Western blot analysis; type: functional, organism-based; details: time 14.0 day
4T1 [30] = assay: Antitumor immunity against mouse 4T1 cells implanted in BALB/c mouse assessed as increase in proportion of CD8+ T cells in tumor at 10 mg/kg,ip every other day for 14 days by flow cytometry; type: functional, organism-based; details: time 14.0 day
4T1 [31] = assay: Antitumor immunity against mouse 4T1 cells implanted in BALB/c mouse assessed as increase in proportion of CD8+ T cells in tumor at 10 mg/kg,ip every other day for 14 days by immunohistochemistry staining based analysis; type: functional, organism-based; details: time 14.0 day
MDA-MB-231 [32] = assay: Induction of DNA damage in human MDA-MB-231 cells assessed as increase in micronuclei frequency in aberrant cell at 4 uM incubated for 24 hrs by DAPI staining based microscopic analysis; type: functional
MDA-MB-231 [33] = assay: Induction of DNA damage in human MDA-MB-231 cells assessed as increase in multi-nuclei frequency in aberrant cell at 4 uM incubated for 24 hrs by DAPI staining based microscopic analysis; type: functional

CN(C)CCN(C)c1ccc(-c2nc3ccc(C(F)(F)F)cc3nc2-c2ccc(N(C)CCN(C)C)cc2)cc1
ΔTm (Quadruplex DNA [1]): 6.1 °C
IC50 (MDA-MB-231 [2]): 1700 nM
IC50 (4T1 [3]): 4.6 µM
IC50 (MCF7): 3.6 µM
Activity (Quadruplex DNA [4]): Active
Activity (Quadruplex DNA [5]): Active
Activity (Quadruplex DNA [6]): Active
Activity (MDA-MB-231 [7]): Active
Activity (MDA-MB-231 [8]): Active
Activity (MDA-MB-231 [9]): Dose-Dependent Effect
Activity (MDA-MB-231 [10]): Tde
Activity (MDA-MB-231 [11]): 82.1%
Activity (MDA-MB-231 [12]): 81.6%
Activity (MDA-MB-231 [13]): 70.3%
Activity (MDA-MB-231 [14]): Active
Activity (MDA-MB-231 [15]): Active
Activity (MDA-MB-231 [16]): Active
inhibition (MDA-MB-231 [17]): Dose-Dependent Effect
Drug uptake [18]: Active
Activity (MDA-MB-231 [19]): Active
Activity (Quadruplex DNA [20]): Active
Activity (BMDC): 77.9%
Activity (4T1 [21]): Active
Activity (4T1 [22]): Active
Activity [23]: Non-Toxic
Activity [24]: Non-Toxic
Activity [25]: Non-Toxic
Activity [26]: Non-Toxic
Activity [27]: Non-Toxic
Activity (4T1 [28]): Active
Activity (4T1 [29]): Active
Activity (4T1 [30]): Active
Activity (4T1 [31]): Active
Activity (MDA-MB-231 [32]): Active
Activity (MDA-MB-231 [33]): Active
